In doi:10.1101/2024.08.19.608619, “Discovery of potent SARS-CoV-2 nsp3 macrodomain inhibitors uncovers lack of translation to cellular antiviral response” (bioRxiv, 2024):
Read-outs that look alike come from different tables or passages of the source.

Columns and labels:
[1] = target: T1, SARS-CoV-2 nsp3-mac1 (Severe acute respiratory syndrome coronavirus 2, UniProt P0DTD1); assay: biochemical; format: biochemical; settings: SARS-CoV-2 nsp3 macrodomain TR-FRET single point, n=2
[2] = target: T1, SARS-CoV-2 nsp3-mac1; assay: biochemical; design: SARS-CoV-2 nsp3 macrodomain TR-FRET single point, per cent inhibition, n=2
[3] = read-out: perc_inhibition_mean, batch_name=ASAP-0000261-001
[4] = read-out: perc_inhibition_mean, batch_name=ASAP-0000262-001
[5] = read-out: perc_inhibition_mean, batch_name=ASAP-0000263-001
[6] = read-out: perc_inhibition_mean, batch_name=ASAP-0000264-001
[7] = read-out: perc_inhibition_mean, batch_name=ASAP-0000265-001
[8] = read-out: perc_inhibition_mean, batch_name=ASAP-0000267-001
[9] = read-out: perc_inhibition_mean, batch_name=ASAP-0000268-001
[10] = read-out: perc_inhibition_mean, batch_name=ASAP-0000276-001
[11] = read-out: perc_inhibition_mean, batch_name=ASAP-0000277-001
[12] = read-out: perc_inhibition_mean, batch_name=ASAP-0000278-001
[13] = read-out: perc_inhibition_mean, batch_name=ASAP-0000279-001
[14] = read-out: perc_inhibition_mean, batch_name=ASAP-0000280-001
[15] = read-out: perc_inhibition_mean, batch_name=ASAP-0000281-001
[16] = read-out: perc_inhibition_mean, batch_name=ASAP-0000282-001
[17] = read-out: perc_inhibition_mean, batch_name=ASAP-0000283-001
[18] = read-out: perc_inhibition_mean, batch_name=ASAP-0000284-001
[19] = read-out: perc_inhibition_mean, batch_name=ASAP-0000285-001

Structure (SMILES) | perc_inhibition_mean ([1]; concentration 50.0 uM) [%] | perc_inhibition_mean ([1]; concentration 100.0 uM) [%] | perc_inhibition_mean ([1]; concentration 49.75 uM) [%] | perc_inhibition_mean ([1]; concentration 99.5 uM) [%] | other results
O=C(NCc1nc2cccnc2[nH]1)c1cnc2nc[nH]c(=O)c2c1 [ASAP-0000261] | -1.987 | 7.034 | – | – | inhibition at 50 µM [2, 3]: -1.99%; inhibition at 100 µM [2, 3]: 7.03%
c1cc(CNc2ncnc3nc[nH]c23)n2ncnc2c1 [ASAP-0000262] | 1.353 | 10.036 | – | – | inhibition at 50 µM [2, 4]: 1.35%; inhibition at 100 µM [2, 4]: 10%
Cc1[nH]c2ncnc(NCc3ccco3)c2c1C [ASAP-0000263] | 16.967 | 37.474 | – | – | inhibition at 50 µM [2, 5]: 17%; inhibition at 100 µM [2, 5]: 37.5%
Cc1nc(NC(=O)c2nccc3ccncc23)c2cc[nH]c2n1 [ASAP-0000264] | -5.834 | 2.611 | – | – | inhibition at 50 µM [2, 6]: -5.83%; inhibition at 100 µM [2, 6]: 2.61%
CCC(CC)(C(=O)Nc1nc(C)nc2[nH]ccc12)C(=O)OC(C)(C)C [ASAP-0000265] | -9.456 | -4.708 | – | – | inhibition at 50 µM [2, 7]: -9.46%; inhibition at 100 µM [2, 7]: -4.71%
O=C(Nc1cnc2[nH]ncc2c1)c1cccc(-c2noc(C(F)(F)F)n2)c1 [ASAP-0000267] | -0.675 | -1.621 | – | – | inhibition at 50 µM [2, 8]: -0.675%; inhibition at 100 µM [2, 8]: -1.62%
Cc1nc(NC(=O)c2ccnn2C(C)C)c2cc[nH]c2n1 [ASAP-0000268] | -2.642 | -4.346 | – | – | inhibition at 50 µM [2, 9]: -2.64%; inhibition at 100 µM [2, 9]: -4.35%
COC(=O)[C@]1(F)CCN(C(=O)c2ccc(NC(=O)Nc3ccccc3)cc2)C1 [ASAP-0000276] | – | – | -0.893 | 0.834 | inhibition at 49.75 µM [2, 10]: -0.893%; inhibition at 99.5 µM [2, 10]: 0.834%
CN(Cc1cn(C)nn1)C(=O)c1cnn2ccc(C3CCN(C(=O)c4ccccc4)CC3)cc12 [ASAP-0000277] | – | – | 2.174 | 1.337 | inhibition at 49.75 µM [2, 11]: 2.17%; inhibition at 99.5 µM [2, 11]: 1.34%
Cc1ncc(NCc2csc(-c3ccccn3)n2)cn1 [ASAP-0000278] | – | – | -5.23 | -4.487 | inhibition at 49.75 µM [2, 12]: -5.23%; inhibition at 99.5 µM [2, 12]: -4.49%
FC(F)(F)c1nnc2n1CCN(c1ncnc3[nH]ccc13)C2 [ASAP-0000279] | – | – | -1.969 | -1.005 | inhibition at 49.75 µM [2, 13]: -1.97%; inhibition at 99.5 µM [2, 13]: -1%
O=C(c1ccccc1)N1CCC(c2ccn3ncc(C(=O)N4CCc5nc[nH]c5C4)c3c2)CC1 [ASAP-0000280] | – | – | 11.216 | 20.268 | inhibition at 49.75 µM [2, 14]: 11.2%; inhibition at 99.5 µM [2, 14]: 20.3%
Cc1c(-c2cnc3nc[nH]c(=O)c3c2)ccc2[nH]ncc12 [ASAP-0000281] | – | – | -3.121 | -4.364 | inhibition at 49.75 µM [2, 15]: -3.12%; inhibition at 99.5 µM [2, 15]: -4.36%
O=C(NC1CCC(F)(F)CC1)c1ncnc2[nH]ccc12 [ASAP-0000282] | – | – | -3.47 | -5.78 | inhibition at 49.75 µM [2, 16]: -3.47%; inhibition at 99.5 µM [2, 16]: -5.78%
Cc1n[nH]nc1C(=O)N1CCC(c2ccn3ncc(C(=O)N4CCCCC4)c3c2)CC1 [ASAP-0000283] | – | – | 29.33 | 45.786 | inhibition at 49.75 µM [2, 17]: 29.3%; inhibition at 99.5 µM [2, 17]: 45.8%
Cc1nc(C(=O)N2CCC(c3ccn4ncc(C(=O)N5CCCCC5)c4c3)CC2)c(=O)[nH]c1C [ASAP-0000284] | – | – | 26.409 | 44.216 | inhibition at 49.75 µM [2, 18]: 26.4%; inhibition at 99.5 µM [2, 18]: 44.2%
O=C(c1ncc[nH]1)N1CCC(c2ccn3ncc(C(=O)N4CCCCC4)c3c2)CC1 [ASAP-0000285] | – | – | 18.474 | 37.203 | inhibition at 49.75 µM [2, 19]: 18.5%; inhibition at 99.5 µM [2, 19]: 37.2%
